From article PMC5760849 (2017)

Tests used:
[1] = test system: (G4C2)4 RNA G-Q, dual-labelled (RNA, G4) GGGGCCGGGGCCGGGGCCGGGGCC; experiment: FRET melting; settings: Na+ (10 mM sodium cacodylate); pH 7.35; compound 2 μM; screening threshold, exact value only in figure
[2] = test system: (G4C2)4 RNA (CD) (RNA, G4) GGGGCCGGGGCCGGGGCCGGGGCC; experiment: CD, induced signal 350–550 nm; settings: Na+ (10 mM sodium cacodylate); pH 7.35; RNA 1 μM; compound 2 μM

| SMILES | ΔTm [1] | binding [2] |
| --- | --- | --- |
| N=C(N)c1ccc(-c2ccc(-c3ccc(-c4ccc(C(=N)N)cn4)[se]3)[se]2)nc1 | > 13 °C | yes |
| N=C(N)c1ccc(-c2ccc(-c3ccc(-c4ccc(C(=N)N)cn4)o3)o2)nc1 | > 13 °C | yes |
| N=C(N)c1ccc(-c2ccc(-c3ccc(-c4ccc(C(=N)N)cn4)s3)s2)nc1 | > 13 °C | yes |
